US12275684B2, “Methods for making and using endoxifen” (Atossa Therapeutics, Inc., priority 2017, dated 2025)
Where “and” joins values, the source holds several entries; their conditions need not be identical. Equal values may be shown once.

How the values were obtained:
[1] = Comparison of (Z)-endoxifen concentrations (oral) with published literature (Table 22); type: in vivo
[2] = Bulk drug stability study of (Z)-endoxifen free base; type: physicochemical
Experimental: For bulk stability studies, ˜1 g aliquots of (Z)-endoxifen free base were placed inside individually in double LDPE bags tied with a nylon cable tie. The LDPE bags were then placed in aluminum foil bags and thermally sealed. The samples for stability were placed in tightly capped, 180 mL HDPE bottles under inert conditions (dry nitrogen) at 5° C. and 25° C./60% RH for 12 months, and at 40° C./75% RH for 3 months. The samples were tested for (E)-endoxifen and (Z)-endoxifen concentrations and impurities, moisture or water content by Karl Fischer titration, aerobic bacterial colony forming units and appearance at time points day 0, 10 days, 1 m and 3 m. Table 13 below provides bulk drug stability data at 9 m on endoxifen free base at varying storage conditions.

[3] = Safety and tolerability of oral (Z)-Endoxifen in healthy female volunteers; type: in vivo, human
From the text: Study assessments included taking the subjects medical history, including evaluation of any on-study adverse events and concomitant medication use; height and weight; physical examination; periodic vital signs (body temperature, heart rate, respiratory rate, blood pressure); periodic 12-lead ECGs. […] Specific assessments to evaluate treatment safety included the following: the frequency and type of adverse events, clinical laboratory testing, 12-lead ECGs and vital signs. A modified FACT-ES® scoring questionnaire was used to assess symptomatology.
Safety endpoints were summarized by dose cohort, with placebos pooled across cohorts. Treatment-emergent AEs were coded using the latest version of MedDRA by System Organ Class (SOC) and Preferred Term, classified from verbatim terms. The incidence and frequency of AEs, and SAEs, were summarized by cohort according to SOC and Preferred Terms, and by severity and relationship. The duration of AEs was determined and included in listings, along with the action taken and outcome. Vital signs, ECG and safety laboratory parameters were summarized at each scheduled time point using descriptive statistics. Post-dose assessments were compared with baseline measurements. The incidence of laboratory abnormalities was summarized. Physical examination findings were presented in listings.

CC/C(=C(\c1ccc(O)cc1)c1ccc(OCCNC)cc1)c1ccccc1 [(Z)-Endoxifen, (Z)-4-(1-(4-(2-(methylamino)ethoxy)phenyl)-2-phenylbut-1-enyl) phenol]
% Ratio of Css Study/Literature ([1]; oral dose 1 mg): 154% | Study Result of Average Serum (Z)-Endoxifen Css ([1]; oral dose 1 mg): 19.1 ng/mL and 51.1 nM | % Ratio of Css Study/Literature ([1]; oral dose 2 mg): 204% | Study Result of Average Serum (Z)-Endoxifen Css ([1]; oral dose 2 mg): 38 ng/mL and 101.7 nM | % Ratio of Css Study/Literature ([1]; oral dose 4 mg): 150% | Study Result of Average Serum (Z)-Endoxifen Css ([1]; oral dose 4 mg): 85.1 ng/mL and 227.9 nM | time for which stable ([2]; 40° C./75% RH): at least 3 months | (Z)-endoxifen USP <921≥ Plate Count ([2]; Storage 5° C.): 13990 cfu g/mL | (E)-endoxifen content ([2]; Storage 5° C., 0 m): 0.19% | (Z)-endoxifen % Purity ([2]; Storage 5° C., 0 m): 99.5% | Max Indiv. Impurity ([2]; Storage 5° C., 0 m): 0.11% | Water content (Karl Fischer) ([2]; Storage 5° C., 0 m): 0.06% | (E)-endoxifen content ([2]; Storage 5° C., 3 m): 0.17% | (Z)-endoxifen % Purity ([2]; Storage 5° C., 3 m): 99.6% | Max Indiv. Impurity ([2]; Storage 5° C., 3 m): 0.10% | Water content (Karl Fischer) ([2]; Storage 5° C., 3 m): 0.05% | (E)-endoxifen content ([2]; Storage 5° C., 6 m): 0.18% | (Z)-endoxifen % Purity ([2]; Storage 5° C., 6 m): 99.5% | Max Indiv. Impurity ([2]; Storage 5° C., 6 m): 0.11% | Water content (Karl Fischer) ([2]; Storage 5° C., 6 m): 0.05% | (E)-endoxifen content ([2]; Storage 5° C., 9 m): 0.19% | (Z)-endoxifen % Purity ([2]; Storage 5° C., 9 m): 99.5% | Max Indiv. Impurity ([2]; Storage 5° C., 9 m): 0.11% | Water content (Karl Fischer) ([2]; Storage 5° C., 9 m): 0.05% | (Z)-endoxifen USP <921≥ Plate Count ([2]; Storage 25° C./60% RH): 14030 cfu g/mL | (E)-endoxifen content ([2]; Storage 25° C./60% RH, 0 m): 0.19% | (Z)-endoxifen % Purity ([2]; Storage 25° C./60% RH, 0 m): 99.5% | Max Indiv. Impurity ([2]; Storage 25° C./60% RH, 0 m): 0.11% | Water content (Karl Fischer) ([2]; Storage 25° C./60% RH, 0 m): 0.06% | (E)-endoxifen content ([2]; Storage 25° C./60% RH, 3 m): 0.17% | (Z)-endoxifen % Purity ([2]; Storage 25° C./60% RH, 3 m): 99.6% | Max Indiv. Impurity ([2]; Storage 25° C./60% RH, 3 m): 0.11% | Water content (Karl Fischer) ([2]; Storage 25° C./60% RH, 3 m): 0.05% | (E)-endoxifen content ([2]; Storage 25° C./60% RH, 6 m): 0.18% | (Z)-endoxifen % Purity ([2]; Storage 25° C./60% RH, 6 m): 99.5% | Max Indiv. Impurity ([2]; Storage 25° C./60% RH, 6 m): 0.11% | Water content (Karl Fischer) ([2]; Storage 25° C./60% RH, 6 m): 0.06% | (E)-endoxifen content ([2]; Storage 25° C./60% RH, 9 m): 0.19% | (Z)-endoxifen % Purity ([2]; Storage 25° C./60% RH, 9 m): 99.5% | Max Indiv. Impurity ([2]; Storage 25° C./60% RH, 9 m): 0.11% | Water content (Karl Fischer) ([2]; Storage 25° C./60% RH, 9 m): 0.07% | (Z)-endoxifen USP <921≥ Plate Count ([2]; Storage 40° C./75% RH): 13776 cfu g/mL | (E)-endoxifen content ([2]; Storage 40° C./75% RH, 0 m): 0.19% | (Z)-endoxifen % Purity ([2]; Storage 40° C./75% RH, 0 m): 99.5% | Max Indiv. Impurity ([2]; Storage 40° C./75% RH, 0 m): 0.11% | Water content (Karl Fischer) ([2]; Storage 40° C./75% RH, 0 m): 0.06% | (E)-endoxifen content ([2]; Storage 40° C./75% RH, 3 m): 0.17% | (Z)-endoxifen % Purity ([2]; Storage 40° C./75% RH, 3 m): 99.5% | Max Indiv. Impurity ([2]; Storage 40° C./75% RH, 3 m): 0.11% | Water content (Karl Fischer) ([2]; Storage 40° C./75% RH, 3 m): 0.07% | time for which stable ([2]; ambient temperature): at least 9 months | time for which stable ([2]; solid, 5° C.): at least 9 months | time for which stable ([2]; solid, 25° C./60% RH): at least 9 months | aerobic bacterial plate count TAC ([2]; storage conditions studied): less than 20,000 cfu g/mL | water content ([2]; storage conditions studied): not more than 1% | subjects with treatment related AEs of moderate severity ([3]; 5 of 18 subjects): 28% | subjects with treatment-emergent AEs deemed related to study drug ([3]; 15 of 18 subjects, oral 1-4 mg): 83% | number of treatment related AEs of moderate severity ([3]; 18 subjects): 6 AEs | number of treatment-related AEs ([3]; 18 subjects, oral 1-4 mg): 41 AEs | severity of AEs ([3]; all AEs mild (75 of 84) or moderate (9 of 84), incl. placebo): no AEs classified as severe | adverse events reported only in subjects who received (Z)-Endoxifen ([3]; human, in vivo): Upper respiratory infection, hot flush, abdominal distension, dry mouth, and menstruation delayed | safety by clinical laboratory tests, vital signs, ECG, FACT-ES versus placebo ([3]; human, in vivo): no clear differences in safety
